In brackets after ≈: the same amount, converted by molar mass.
Key:
[1] = Displacement of methyl green from DNA; design: species or system Homo sapiens
Ehrlich [2] = test: Antitumor activity against Ehrlich ascites carcinoma cells in mouse assessed as haemoglobin level at 20 mg/kg after 14 days; type: functional
Ehrlich [3] = test: Antitumor activity against Ehrlich ascites carcinoma cells in mouse assessed as increase in life span at 20 mg/kg relative to control; type: functional
Ehrlich [4] = test: Antitumor activity against Ehrlich ascites carcinoma cells in mouse assessed as RBC count at 20 mg/kg after 14 days; type: functional
Ehrlich [5] = test: Antitumor activity against Ehrlich ascites carcinoma cells in mouse assessed as WBC count at 20 mg/kg after 14 days; type: functional
Ehrlich [6] = test: Antitumor activity against Ehrlich ascites carcinoma cells in mouse assessed as cell viability at 20 mg/kg after 5 days; type: functional

SMILES | IC50 [1] [mg/L] | Activity (Ehrlich [2]) [%] | Activity (Ehrlich [3]) [%] | Activity (Ehrlich [4]) | Activity (Ehrlich [5]) | Activity (Ehrlich [6])
COc1cccc2c1C(=O)c1c(O)c3c(c(O)c1C2=O)C[C@@](O)(C(C)=O)C[C@@H]3O[C@H]1C[C@H](N)[C@H](O)[C@H](C)O1 [DAUNORUBICIN] | 28 (≈ 53.1 µM) | – | – | – | – | –
O=c1[nH]cc(F)c(=O)[nH]1 [FLUOROURACIL] | – | 15.6 | 42.8 | 5.87 /10^6mm3 | 14.7 /10^3mm3 | 83.6 10^6/100microL
